Assay results taken from patent EP0938338B1, “CARRIER COMPOSITION FOR INFLUENCING THE TIGHT JUNCTION PERMEABILITY” (Ghyssaert, Joris Rosa Michael, priority 1996, dated 1998).
Converted amounts (≈) assume the structure as drawn.

How the values were obtained:
[1] = system: colon descendens; assay: Temperature increase in ligated colon segment (sample versus reference segment); assay type: in vivo, Guinea pigs
Method: While animals are thermally unstable during narcosis special precautions had to be taken to overcome this problem. Guinea pigs (400 g, males) were fasted 12 hours before the experiment. Anaesthesia was induced by intraperitoneal injection of Ethylurethane (0.9 g.kg^-1). The guinea pig was fixed on a thermostated operation table, monitored by a thermosensible detector rectally applied. Heating was carried out by the operation table itself and two lamps located above the animal.
In the evacuated colon descendens two segments were localised. In both segments, later called sample- and reference segment small measuring electrodes were fixed, displaying continuously the absolute temperature until 0.001°C. Two other electrodes linked by a Wheatstone bridge connection were equally located in the two segments. They measure continuously the temperature difference between the two segments.
In both segments a smooth catheter (I.D. 0.3 mm) was fixed, winded several times in the intestinal cavity. In this catheters 100 µl of the reference- and sample solution was injected.
The intestinal cavity was sealed again. This set up enables the injection of solutes at body temperature. The animal was thermally isolated by gauge. After ten minutes, the wheatstone bridge was equilibrated. An injection of 100 µl air evacuates the catheters so injecting the solutions at perfect body temperature.
The electrodes displaying the absolute temperature were calibrated in a thermostatically controlled water bath between 36.0°C and 38.0°C. […] The electrodes measuring the temperature difference were calibrated by two thermostatically controlled water baths with temperature differences between 0.0°C and 2.0°C. The rectal temperature was directly monitored in °C.
• * reference solution: • Krebsolution - TRIS.HCl buffer 0.1 M pH 8.0 (9/1) osmotic pressure equals 0.9 % Sodium Chloride • * Sample solutions : • - Rhein saturated in reference solution.

[2] = system: monocellular mucosal layer of the guinea-pig colon; assay: ATP content of lyophilised colon mucosa (firefly bioluminescence); assay type: in vivo, Guinea pigs; details: 3.76 mg rhein in ligated colonic segment
Method: The ATP content was measured in the monocellular mucosal layer of the guinea-pig colon.
Guinea pigs with a weight (mean ± 400 g) were fasted 12 hours before the experiments. Anaesthesia was induced by intraperitoneal injection of Ethylurethane (0.9 g.kg^-1).
The segment was filled with 4.0 ml of the solution to be tested. The intestinal cavity was immediately sealed again. After the experiment the colon segment was removed and submerged in liquid Nitrogen. The gut specimen was transferred to the precooled lyophylisator (-80°C, sample -20°C) and lyophilised during 36 hours. Microscopically, the mono cellular mucosa layer was scraped off. One segment, proceeding this way normally yield 1.5 - 2.0 mg lyophilised mucosa cells. 1.000 mg mucosa was weighted carefully on a microbalans and homogenised with 100.00 mg lactose. The ATP level was measured on 3.000 mg of this mixture.
ATP was measured following the firefly-bioluminescence system on a LKB Wallac 1250, fitted with a 1250 display. […]
For the blank experiment 200 µl Luciferine-Luciferase solution was mixed with 500 µl TRIS-EDTA buffer solution. The light emission was measured following the addition of standard amounts of ATP.
3.000 mg of the mucosa/lactose mixture was suspended in 800 µl TRIS-EDTA buffer solution. […] Known quantities of ATP were added.

[3] = system: blood glucose level; assay: Rectal perfusion of insulin, blood glucose versus intramuscular injection (set up 1); assay type: in vivo, guinea pigs and rats; details: uncoupler added to perfusion, total concentration 0.5 mg
Method: The resorption of Insulin has been monitored by the lowering of the blood glucose level versus an intramuscular injection of an equivalent dose. Glucose was monitored while the determination is simple and inexpensive. However, on several experiments the Insulin level was measured by RIA (Radio Immuno Assays) methods.
Initially the resorption of Insulin was monitored following a perfusion on anaesthetised animals. Anaesthesia was induced by abdominal injection of Ethylurethane (0.9 g/kg).
The circulating solution was principally isotonic Sodium chloride (physiological saline) to which the appropriate Insulin was added in order to obtain the required concentrations.
The used Insulin was […]™ (Novo Nordisk); Human Biosynthetic Insulin.
The perfusion itself was executed on a new developed manner in order to allow a perfusion without an operation. Blood was sampled on the jugular vein.
The device used allows an easy rectal application. It allows an exact positioning and an identical length of perfused colon.
The total circulating fluid was 8 ml. As tubing Isoversinic was used. At intervals 50 µl blood was sampled and used for the glucose determinations. These perfusion experiments were carried out on guinea pigs and rats. […]

[4] = system: blood glucose level; assay: Hollow suppositories with insulin, blood glucose versus intramuscular injection (set up 2); assay type: in vivo, rabbits; details: uncoupler in suppository mass (3 mg, 3 mg, 1.5 mg); insulin in physiological saline
Method: Therefore experiments were carried out on rabbits. Male rabbits were immobilised in a metal cage allowing free access to the anal region and the auricular arteries of both ears. In these experiments narcosis was not essential. The sampled blood volume was 0.5 ml.
Small hollow suppositories were made with dimensions ± 2 cm, φ 0.5 cm. The suppositories were filled with […] ™ (Novo Nordisk) 100 I.U./ml in the appropriate dilution with physiological saline. The anal region was secured with adhesive tape.
The following concentrations were used 0.1 I.U./kg body weight, 0.5 I.U./kg body weight, 1.0 I.U./kg body weight.
As the content of the suppository was approximately 0.6 ml, 450 µl (at the highest dose) of the Insulin solution was mixed with 150 µl normal saline.
For these experiments Insulin from bovine pancreas (activity 41.67 µg = 1 I.U.) Fluka was solved in 0.6 ml bidistilled water. The experiment was carried out as outlined above.

[5] = Saturation concentration in reference solution; details: krebs - tris.hcl buffer, pH 8, aqueous buffer
[6] = system: paracellular route; assay: Blockade by TAP of the 1,8-dihydroxyanthraquinone-increased mucosal permeability (99mTc-EDTA); assay type: in vivo, Guinea pigs; details: TAP 80 mM pH 6.0 followed by 99mTc-EDTA; Fig. 4; p < 0.01
Method: 2,4,6-Triaminopyrimidine (TAP) was used to block the paracellular way. If the resorption of a non resorbable molecule ^99mTc-EDTA complex was enhanced by the addition of a mitochondrial uncoupler and blocked by TAP, then the route followed by the ^99mTc-EDTA complex was unequivocally identified as the paracellular one.
The same materials and methods were used as described in Example 1. However, instead of ^99mc-EDTA TAP was used followed by ^99mTc-EDTA.
100 mg TAP was solved in bidistilled water. The pH was adjusted to 6.0 with HCl 2 N and completed to 10.0 ml. Final concentration was 80 mM. To obtain a physiological osmolarity 16 mg sodium chloride was added.

[7] = system: paracellular permeability; assay: 99mTc-EDTA transfer from ligated colon segment to kidneys/urine bladder (mucosal permeability); assay type: in vivo, Guinea pigs; details: for colonic permeability: 99mTc-EDTA in ligated colon segment, one hour, Fig. 2 / Fig. 3; for transfer from lumen to blood of 99mTc-EDTA: after previous administration of the uncoupler
Method: Guinea pigs of either sex (250-280 g) were fed for one week with pelleted food containing 0.1% 1,8 dihydroxyanthraquimone. For this purpose the necessary amount of Anthraquinone was solved in ether and sprayed over the pelleted foods. The ether was evaporated. The calculated daily administration of 1,8 dihydroxyantraquinone was 20 mg.
The animals were fasted 6 hours before the experiment in order to empty the proximal colonic segment.
Anaesthesia was induced by peritoneal injection of ethyl urethane (0.9 g.kg^-1) and body temperature was maintained at 37°C by a thermostatically controlled heated table.
A midventral abdominal incision was made and the large intestine exposed.
In this ligated colon segment 0.25 ml ^99mTcEDTA was injected. Immediately the abdominal cavity was closed.
The biodistribution of the labelled complex was visualised by a γ-camera Pho/GAMMA®HP-Nuclear; Chicago fitted with a low energy ([…]) convergating collimator.
After one hour the guinea pigs were killed with chloroform and both kidneys, the ligated colon segment and the liver were isolated. Urine was collected from the urine bladder using a syringe. The activity of the samples was measured by a Gamma-counter (Berthold, Gamma-sample changer BF 5300) positioned on 140 ± 10 keV.
In order to determine the influence of the salicylic acid and dinitrophenol on mucosal permeability, 0.25 ml of salicylic acid was injected in the ligated colon segment of untreated animals. After an exposure time of 30 minutes the labelled ^99mTc-EDTA-complex was injected. The procedure continued as described for 1,8 dihydroxyantraquinone.
The instant kit method of Eckelman and Richards (J. Nucl. Med. 11, 761(1970)) was modified. 5.0 mg of Na2EDTA and 0.5 mg of snCl2.2H20/ml was filtered through a 0.22 µ membrane filter and conserved in 3 ml vacuum serum tubes. The kits were kept at -20°C.
Prior to the experiment 1 ml sterile eluate of a ^99mTc-generator (Sterow™ 99m Byk-Malincrodt) with an activity of 2-10 µ Ci was added to the thawed kit. After mixing the efficiency of the complex formulation was assessed by paper chromatography (Whatman N° 1) using physiological water and methylethylketone as mobile phase. Detection was made with a Berthold Scanner. More than 98% of the present ^99mTc was complexed.
100 mg salicylic acid or dinitrophenol was solved in bidistilled water. Sodium hydroxide N was added until complete dissolution. pH was adjusted on 8.5. Water was added to a volume of 10 ml. Osmolarity was adjusted (275 mOsm/1) by adding 23 and 14 mg sodium chloride respectively.

[8] = system: large intestine; assay: Colon perfusion: secretory effect of rhein (water, sodium, K+) and its antagonism; assay type: in vivo
[9] = system: junctions of the colonic mucosa; assay: Blockade of the paracellular route by anti-diarrhoeal drugs (99mTc-EDTA transfer lumen to blood); assay type: in vivo; details: in combination with DHA; Fig. 5
[10] = system: isolated mitochondria; assay: Generation speed of ATP in isolated mitochondria (Luciferin-Luciferase); assay type: biochemical, Phaseolus aureus; details: 20 µl Loperamide HCl (5 mg/80 ml water); increasing concentrations DHA; N=15; Fig. 8
Method: Mitochondria were isolated from Phaseolus aureus. Beans were allowed to sprout at 28°C during 5 days in the dark. 40 g sprouts were used.
The plant material was homogenised at 3°C with a solution of 0.3M Mannitol, 1 mM Na2EDTA, 0.1% BSA, 0.05% Cysteine. The pH was adjusted to 7.2
During homogenisation 6 N KOH was added to keep the pH at 7.2.
The suspension was centrifuged at 2°C (2000 x g for 15 minutes). The pellet was removed and the supernatant centrifuged again during 20 minutes (8000 x g). The pellet was carefully resuspended in 1 ml of a solution (reaction medium) with 0.3M Mannitol, 10mM phosphate buffer, 10mM KCl, 5mM MgCl2, 0.1% BSA. The pH was adjusted at 7.2.
Mitochondrial quality was assessed by measuring the formation speed of ATP following a ADP injection. ATP was measured by L-Luciferin-Luciferase light emission in the LKB-Luminometer.
The measurement of ATP was carried out in a medium consisting of a 1/1 mixture of reaction medium and Luciferin-Luciferase buffer. The complex composition is : • 200 µl Luciferin-Luciferase solution • 400 µl TRIS.HCl 0.05 M - EDTA 2 mM pH 7.75 • 400 µl reaction medium as explained above • 20 µl mitochondrial suspension • 10 µl Succinate 10 mM pH 7.7 • 20 µl Loperamide HCl (5 mg/80 ml water) or water depending on the experimental set up 1,8 dihydroxyanthraquinone was used in a concentration of 2 mg/100 ml methanol.

[11] = 100 µl saturated solution in colon segment versus reference segment, Fig. 10

O=C(O)c1cc(O)c2c(c1)C(=O)c1cccc(O)c1C2=O [rhein]
temperature rise [1, 11]: 0.36 °C
initial ATP concentration recovered ([2]; after 60 minutes): 67.1%
initial ATP concentration remaining ([2]; after 90 minutes): 35.9%
Insulin absorption, of the effect obtained after an intramuscular injection [3]: ~44%
blood glucose fall, of the effect obtained after intramuscular injection of an identical dose [4]: ~50%
solubility [5]: 0.952 µg/mL (≈ 3.35 µM)

Nc1cc(N)nc(N)n1 [TAP, 2,4,6-Triaminopyrimidine]
mucosal permeability following a 1,8-dihydroxyanthraquinone administration [6]: nearly completely restored

COc1ccc2c(c1)c(CC(=O)O)c(C)n2C(=O)c1ccc(Cl)cc1 [Indomethacin]
Insulin absorption, of the effect obtained after an intramuscular injection [3]: ~44%
blood glucose fall, of the effect obtained after intramuscular injection of an identical dose [4]: ~50%

O=C(O)c1ccccc1O [salicylic acid]
colonic permeability [7]: similar, although less pronounced effect
transfer from lumen to blood of 99mTc-EDTA [7]: significantly enhanced
temperature rise ([1]; other tested mitochondrial uncouplers): show the same results

O=C1c2cccc(O)c2C(=O)c2c(O)cccc21 [1,8-dihydroxyanthraquinone]
colonic permeability [7]: remarkable increase of colonic permeability
transfer from lumen to blood of 99mTc-EDTA [7]: significantly enhanced
radioactivity leaked from the colon and concentrated in the urine bladder ([7]; one hour after administration of the radioactive complex, 0.1% in food for one week): ~25%
temperature rise [1, 11]: 0.70 °C
blood glucose fall, of the effect obtained after intramuscular injection of an identical dose [4]: ~50%

CN1CC[C@]23c4c5ccc(O)c4O[C@H]2[C@@H](O)C=C[C@H]3[C@H]1C5 [morphine]
K+ concentration ([8]; in vivo): completely antagonised
effect on the secretory effect of rhein ([8]; in vivo): counteracted the secretory effect of rhein
effect on the secretory effect of rhein, prior perfusion ([8]; in vivo): protects the large intestine from the secretory effect of rhein

CN(C)C(=O)C(CCN1CCC(O)(c2ccc(Cl)cc2)CC1)(c1ccccc1)c1ccccc1 [loperamide]
transfer of 99mTc-EDTA complex from lumen to blood [9]: no longer transferred from lumen to blood
protection against uncoupling effect of DHA on generation speed of ATP [10]: protects mitochondria in vitro against the uncoupling effect of anthraquinones
effect on temperature rise following DHA administration ([1]; guinea pig, in vivo): antagonises the temperature rise

trigalloylglucose
effect on the secretory effect of rhein ([8]; perfused after rhein or together with rhein, Fig. 6, Fig. 7): inhibit completely the secretory effect of rhein
